From patent US4731459A, “Novel anti-ulcer agents and quassinoids” (Shionogi & Co., Ltd., priority 1985, dated 1988)
Read-outs that look alike come from different tables or passages of the source.

Tests used:
[1] = tested on: ulcer caused by indomethacin (mucosal lesions in the glandular part of the stomach); experiment: Effect on ulcer caused by indomethacin; assay type: in vivo, male SD rats; details: Rattus norvegicus, ip, read-out: % Inhibition of lesion formation
Description: Indomethacin is subcutaneously administered to male SD rats (body weight: 200-220 g) fasted for 24 hours at a dose of 30 mg/kg. The stomachs are excised 7 hours after the administration. The total length of mucosal lesions occurred in the glandular part of the stomach is measured and % inhibition of lesion formation is calculated in comparison with those in the control group. Fifteen minutes before the administration of indomethacin, the test compounds are intraperitoneally administered in a form of aqueous solution.

[2] = Acute Toxicities; details: mouse, in vivo, ip; intraperitoneal, aqueous solution; male ddY mice
Excerpt: Male ddY mice (Body weight 25-28 g each) are employed for the acute toxicity test. The test compounds are intraperitoneally administered in a form of aqueous solution.

[3] = 3.0 mg/Kg, intraperitoneal, 15 min before indomethacin 30 mg/kg s.c., male SD rats, 7 hours
[4] = 0.3 mg/Kg, intraperitoneal, 15 min before indomethacin 30 mg/kg s.c., male SD rats, 7 hours
[5] = 1.0 mg/Kg, intraperitoneal, 15 min before indomethacin 30 mg/kg s.c., male SD rats, 7 hours

SMILES | inhibition in vivo at 3 mg/kg ([1]; 7 h) | inhibition in vivo at 3 mg/kg [1, 3] | LD50 [2] | also measured
C=C1[C@@H](O)[C@]2(O)OC[C@]34[C@H]2[C@@]2(C)[C@H](O)C(=O)CC(C)[C@@H]2C[C@H]3OC(=O)[C@H](O)[C@@]14O (single isomer, unassigned) [IIh, 3,4-Dihydroeurycomanone] | -10% | – | – | –
CC1CC(=O)[C@@H](O)[C@]2(C)[C@H]3[C@@]4(O)OC[C@@]35[C@@H](C[C@@H]12)OC(=O)C[C@H]5C(C)[C@H]4O (stereo partly shown) [IIc, 3,4,13,18-Tetrahydroailanthone] | – | 13.7% | > 30 mg/kg | –
C=C1[C@@H](O)[C@]2(O)OC[C@]34[C@H]2[C@@]2(C)[C@H](O)C(=O)C=C(C)[C@@H]2C[C@H]3OC(=O)[C@H](O)[C@@]14O [Ib, eurycomanone] | – | – | 18.9 mg/kg | inhibition in vivo at 0.1 mg/kg ([1]; 0.1 mg/Kg, intraperitoneal, 15 min before indomethacin 30 mg/kg s.c., male SD rats, 7 hours): 12.5%; inhibition in vivo at 0.3 mg/kg [1, 4]: 58.5%; inhibition in vivo at 1 mg/kg [1, 5]: 94.7%
CC1=CC(=O)[C@@H](O)[C@]2(C)[C@H]3[C@@]4(O)OC[C@@]35[C@@H](C[C@@H]12)OC(=O)[C@H](O)[C@@]5(O)[C@H](C)[C@H]4O [IIg-B, 13α,18-Dihydro compound] | -3.1% | – | – | –
CC1=CC(=O)[C@@H](O)[C@]2(C)[C@H]3[C@@]4(O)OC[C@@]35[C@@H](C[C@@H]12)OC(=O)[C@H](O)[C@@]5(O)[C@@H](C)[C@H]4O [IIg-A, 13β,18-Dihydro compound] | 47.1% | – | – | –
CC1=CC(=O)[C@@H](O)[C@]2(C)[C@H]3[C@@]4(O)OC[C@@]35[C@@H](C[C@@H]12)OC(=O)C[C@H]5[C@]1(CO1)[C@H]4O [IIa, 13α,18-Epoxy-13,18-dihydroailanthone] | – | 100% | > 100 mg/kg | inhibition in vivo at 0.3 mg/kg [1, 4]: 36.8%; inhibition in vivo at 1 mg/kg [1, 5]: 77.1%
CC1=CC(=O)[C@@H](O)[C@]2(C)[C@H]3[C@@]4(O)OC[C@@]35[C@@H](C[C@@H]12)OC(=O)C[C@H]5[C@@]1(CO1)[C@H]4O [IIb, 13β,18-Epoxy-1,3,18-dihydroailanthone] | – | 74.4% | > 30 mg/kg | –
CC1=CC(=O)[C@@H](O)[C@]2(C)[C@H]3[C@@]4(O)OC[C@@]35[C@@H](C[C@@H]12)OC(=O)C[C@H]5C(C)[C@H]4O (stereo partly shown) [IId, 13,18-dihydroailanthone] | 67.8% | – | > 30 mg/kg | –
CC1=CC(=O)[C@@H](O)[C@]2(C)[C@H]3[C@@]4(O)OC[C@@]35[C@@H](C[C@@H]12)OC(=O)[C@H](O)[C@@]5(O)[C@@]1(CO1)[C@H]4O [IIf, 13β,18-Epoxy-13,18-dihydroeurycomanone] | – | – | 5.5 mg/kg | inhibition in vivo at 0.1 mg/kg ([1]; 7 h): 26.4%; inhibition in vivo at 0.3 mg/kg ([1]; 7 h): 71.3%; inhibition in vivo at 1 mg/kg ([1]; 7 h): 92.6%
CC1=CC(=O)[C@@H](O)[C@]2(C)[C@H]3[C@@]4(O)OC[C@@]35[C@@H](C[C@@H]12)OC(=O)[C@H](O)[C@@]5(O)[C@]1(CO1)[C@H]4O [IIe, 13α,18-Epoxy-13,18-dihydroeurycomanone] | 4.9% | – | – | –
